The values below come from ChEMBL document CHEMBL4308876, “Isolation and structure determination of a new lasso peptide specialicin based on genome mining” (Bioorg Med Chem, 2018).

Converted amounts (≈) assume the structure as drawn. Bridge positions count the residues as written; N and C are the ends. Peptide text beside a SMILES is read from it.

One assay has as its system Bacillus subtilis. Put plainly: Antibacterial activity against Bacillus subtilis after 24 hrs. It counts as functional.
A further assay has as its system Pseudomonas aeruginosa. Put plainly: Antibacterial activity against Pseudomonas aeruginosa after 24 hrs. It counts as functional.
In a further assay the test system is Micrococcus luteus. Put plainly: Antibacterial activity against Micrococcus luteus after 24 hrs. The assay is classed as functional.
The next assay has as its system Staphylococcus aureus. As to the kind of experiment: Antibacterial activity against Staphylococcus aureus after 24 hrs. It counts as functional.
In another assay the test system is Escherichia coli. As to the kind of experiment: Antibacterial activity against Escherichia coli after 24 hrs. It counts as functional.
In assay [1] the test system is Human immunodeficiency virus 1. Put plainly: Antiviral activity against HIV-1 NL4-3 infected in human PM1/CCR5 cells after 7 days by WST-8 assay. To be noted: Human immunodeficiency virus 1, NL4-3, PM1/CCR5, 168 h. It counts as functional, organism-based.

Broadly, the MIC is the lowest concentration that inhibits growth of the organism. A higher MIC goes with a need for much substance. For orientation: IC50 means the point on the concentration scale where inhibition reaches its midpoint. Low readings indicate higher potency, high ones lower potency. For the compound `CC(C)C[C@@H]1NC(=O)[C@@H]2CSSC[C@@H]3NC(=O)CNC(=O)[C@H](C)NC(=O)[C@H](Cc4ccccc4)NC(=O)[C@H](CC(=O)N2)NC(=O)[C@H](C(C)C)NC(=O)[C@H](CSSC[C@@H](C(=O)N[C@@H](Cc2ccccc2)C(=O)N[C@@H](Cc2c[nH]c4ccccc24)C(=O)O)NC(=O)[C@H](C(C)C)NC(=O)[C@H](C(C)C)NC(=O)[C@H](C)NC(=O)[C@H](Cc2ccc(O)cc2)NC(=O)CNC3=O)NC(=O)[C@H](CO)NC(=O)CNC(=O)[C@H](C(C)C)NC(=O)CNC1=O` (CLGVGSCVDFAGCGYAVVCFW-OH; disulfide 1-13, 7-19; lactam N-9), the MIC against Bacillus subtilis was more than 32 µg/mL; with Pseudomonas aeruginosa, more than 32 µg/mL; in the assay on Micrococcus luteus, 8 µg/mL (≈ 3.75 µM); in the assay on Staphylococcus aureus, more than 32 µg/mL; in the assay with Escherichia coli it was more than 32 µg/mL. This compound also returned an IC50 in assay [1] of 7.2 µM.

With `CN(C)[C@@H]1C(O)=C(C(N)=O)C(=O)[C@@]2(O)C(O)=C3C(=O)c4c(O)cccc4[C@@](C)(O)[C@H]3C[C@@H]12` [TETRACYCLINE], the MIC against Bacillus subtilis was 1 µg/mL (≈ 2.25 µM); against Pseudomonas aeruginosa it was 4 µg/mL (≈ 9 µM); with Micrococcus luteus it was 0.25 µg/mL (≈ 0.563 µM); with Staphylococcus aureus, 0.125 µg/mL (≈ 0.281 µM); against Escherichia coli, 2 µg/mL (≈ 4.5 µM).
